{"source": "patent US20160272992A1", "about": "“PROTECTION OF PLANTS AGAINST OXIDATIVE STRESS” (priority 2013, published 2016)", "key": {"SIM/SMR promoters": {"tested_on": "SIM/SMR promoters", "assay": "SIM/SMR promoter:GUS transcriptional reporter lines", "type": "in vivo, Arabidopsis thaliana", "description": "SIM/SMR promoter sequences were amplified from genomic DNA by PCR using the primers described in Table 5. The product fragments were created with the Pfu DNA Polymerase Kit (Promega, Catalog #M7745), and were cloned into a pDONR P4-Plr entry vector by BP recombination cloning and subsequently transferred into the pMK7S*NFml4GW,0 destination vector by LR cloning, resulting in a transcriptional fusion between the promoter of the SMR genes and the nlsGFP-GUS fusion gene (Karimi et al., 2007). For the overexpression constructs, the SMR coding regions were amplified using primers described in Table 5, and cloned into the pDONR221 vector by BP recombination cloning and subsequently transferred into the pK2GW7 destination vector (Kamimi et al., 2002) by LR cloning. All constructs were transferred into the Agrobacterium tumefaciens C58C1RifR strain harboring the pMP90 plasmid. The obtained Agrobacterium strains were used to generate stably transformed Arabidopsis lines with the floral dip transformation method (Clough and Bent, 1998). Transgenic plants were obtained on kanamycin-containing medium and later transferred to soil for optimal seed production.\nComplete seedlings or tissue cuttings were stained in multiwell plates (Falcon 3043; Becton Dickinson). GUS assays were performed as described by Beeckman and Engler (1994). Samples mounted in lactic acid were observed and photographed with a stereomicroscope (Olympus BX51 microscope) or with a differential interference contrast (DIC) microscope (Leica).\nTo confirm involvement of SIM/SMR genes in the genotoxic stress response, transcriptional reporter lines containing the putative upstream promoter sequences were constructed for all. After selection of representative reporter lines, one-week-old seedlings were transferred to control medium, or medium supplemented with HU (resulting into stalled replication forks) or bleomycin (causing DSBs)."}, "[1]": {"tested_on": "root meristem material of seedlings", "conditions": "0.3 μg/mL bleomycin for 24 hours"}, "[2]": {"conditions": "root meristem, treatment relative to control"}}, "data": [{"substance": "bleomycin", "values": [{"measurement": "induction of SMR6 reporter in root tips", "setting": "SIM/SMR promoters; one-week-old seedlings, 0.3 μg/mL bleomycin, GUS assay after 24 hours", "result": "weak cell-specific induction"}, {"measurement": "induction of SMR5 and SMR7 GUS reporters in the proliferating leaf", "setting": "SIM/SMR promoters; treated for 24 hours", "result": "induced"}, {"measurement": "Bleomycin fold change, AT1G07500 (Siamese-related 5)", "setting": "[1]; [2]", "result": 1.595}, {"measurement": "Bleomycin fold change, AT1G13330 (Hop2 homolog)", "setting": "[1]; [2]", "result": 1.580}, {"measurement": "Bleomycin fold change, AT1G17460 (TRF-like 3)", "setting": "[1]; [2]", "result": 1.681}, {"measurement": "Bleomycin fold change, AT1G49030 (PLAC8 family protein)", "setting": "[1]; [2]", "result": 2.653}, {"measurement": "Bleomycin fold change, AT2G18600 (Ubiquitin-conjugating enzyme family protein)", "setting": "[1]; [2]", "result": 1.972}, {"measurement": "Bleomycin fold change, AT2G45460 (SMAD/FHA domain-containing protein)", "setting": "[1]; [2]", "result": 1.575}, {"measurement": "Bleomycin fold change, AT2G46610 (RNA-binding RRM/RBD/RNP motifs family protein)", "setting": "[1]; [2]", "result": 1.546}, {"measurement": "Bleomycin fold change, AT3G07800 (Thymidine kinase)", "setting": "[1]; [2]", "result": 2.759}, {"measurement": "Bleomycin fold change, AT3G25250 (AGC kinase family protein)", "setting": "[1]; [2]", "result": 1.517}, {"measurement": "Bleomycin fold change, AT3G27060 (Ferritin/ribonucleotide reductase-like family protein)", "setting": "[1]; [2]", "result": 1.970}, {"measurement": "Bleomycin fold change, AT3G27620 (alternative oxidase 1C)", "setting": "[1]; [2]", "result": 1.883}, {"measurement": "Bleomycin fold change, AT3G27950 (GDSL-like Lipase/Acylhydrolase superfamily protein)", "setting": "[1]; [2]", "result": 4.012}, {"measurement": "Bleomycin fold change, AT4G02390 (Poly(ADP-ribose) polymerase)", "setting": "[1]; [2]", "result": 2.663}, {"measurement": "Bleomycin fold change, AT4G04750 (Major facilitator superfamily protein)", "setting": "[1]; [2]", "result": 1.689}, {"measurement": "Bleomycin fold change, AT4G05370 (BCS1 AAA-type ATPase)", "setting": "[1]; [2]", "result": 1.807}, {"measurement": "Bleomycin fold change, AT4G15480 (UDP-Glycosyltransferase superfamily protein)", "setting": "[1]; [2]", "result": 2.394}, {"measurement": "Bleomycin fold change, AT4G21070 (Breast cancer susceptibility1)", "setting": "[1]; [2]", "result": 2.386}, {"measurement": "Bleomycin fold change, AT4G22960 (Unknown function DUF544)", "setting": "[1]; [2]", "result": 2.282}, {"measurement": "Bleomycin fold change, AT5G03780 (TRF-like 10)", "setting": "[1]; [2]", "result": 1.600}, {"measurement": "Bleomycin fold change, AT5G14920 (Gibberellin-regulated family protein)", "setting": "[1]; [2]", "result": 2.122}, {"measurement": "Bleomycin fold change, AT5G20850 (RAS associated with diabetes protein 51)", "setting": "[1]; [2]", "result": 1.765}, {"measurement": "Bleomycin fold change, AT5G24280 (Gamma-irradiation and mitomycin c induced 1)", "setting": "[1]; [2]", "result": 2.584}, {"measurement": "Bleomycin fold change, AT5G25810 (Integrase-type DNA-binding superfamily protein)", "setting": "[1]; [2]", "result": 1.573}, {"measurement": "Bleomycin fold change, AT5G40840 (Rad21/Rec8-like family protein)", "setting": "[1]; [2]", "result": 1.692}, {"measurement": "Bleomycin fold change, AT5G48720 (X-ray induced transcript 1)", "setting": "[1]; [2]", "result": 2.228}, {"measurement": "Bleomycin fold change, AT5G49110 (unknown protein)", "setting": "[1]; [2]", "result": 1.562}, {"measurement": "Bleomycin fold change, AT5G49480 (Ca2+-binding protein 1)", "setting": "[1]; [2]", "result": 1.580}, {"measurement": "Bleomycin fold change, AT5G55490 (Gamete expressed protein 1)", "setting": "[1]; [2]", "result": 2.407}, {"measurement": "Bleomycin fold change, AT5G60100 (pseudo-response regulator 3)", "setting": "[1]; [2]", "result": 1.801}, {"measurement": "Bleomycin fold change, AT5G60250 (Zinc finger C3HC4-type RING finger family protein)", "setting": "[1]; [2]", "result": 2.352}, {"measurement": "Bleomycin fold change, AT5G64060 (NAC domain containing protein 103)", "setting": "[1]; [2]", "result": 2.153}, {"measurement": "Bleomycin fold change, AT5G66130 (RADIATION SENSITIVE 17)", "setting": "[1]; [2]", "result": 1.627}, {"measurement": "Bleomycin fold change, AT5G66985 (unknown protein)", "setting": "[1]; [2]", "result": 1.612}, {"measurement": "induction of SMR7 (At3g27630) in the bleomycin experiment", "setting": "[1]; Aragene array", "result": 5.68, "unit": "fold"}]}]}
